In ChEMBL document CHEMBL4308853, “Design, Synthesis, and Pharmacological Evaluation of Novel β2/3 Subunit-Selective γ-Aminobutyric Acid Type A (GABAA) Receptor Modulators” (J Med Chem, 2018):
pEC50: −log10 of the molar value.

Columns and labels:
Assay type in all cases: cell-based
[1] = target: T1, GABA-A receptor; alpha-1/beta-3/gamma-2 (Homo sapiens, UniProt P14867+P18507+P28472); experiment: Positive allosteric modulation of GABA-A alpha1beta3gamma2S receptor (unknown origin) expressed in Xenopus laevis oocytes assessed as increase in GABA-induced chloride current after 15 mins at -70 mV holding potential by two-microelectrode voltage clamp method
T1 sequence (P14867 whole entry): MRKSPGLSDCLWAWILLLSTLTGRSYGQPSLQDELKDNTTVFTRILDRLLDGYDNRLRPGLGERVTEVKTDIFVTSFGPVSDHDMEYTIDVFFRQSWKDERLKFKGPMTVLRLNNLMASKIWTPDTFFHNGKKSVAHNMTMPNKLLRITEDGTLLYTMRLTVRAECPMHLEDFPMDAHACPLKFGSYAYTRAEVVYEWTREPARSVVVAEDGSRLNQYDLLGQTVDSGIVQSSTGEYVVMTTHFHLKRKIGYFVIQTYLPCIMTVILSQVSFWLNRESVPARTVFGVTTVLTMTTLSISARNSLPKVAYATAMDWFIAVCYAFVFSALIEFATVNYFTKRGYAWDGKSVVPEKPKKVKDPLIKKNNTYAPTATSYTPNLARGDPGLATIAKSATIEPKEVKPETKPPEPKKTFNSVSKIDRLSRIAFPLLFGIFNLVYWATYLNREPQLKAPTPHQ
T1 sequence (P18507 whole entry): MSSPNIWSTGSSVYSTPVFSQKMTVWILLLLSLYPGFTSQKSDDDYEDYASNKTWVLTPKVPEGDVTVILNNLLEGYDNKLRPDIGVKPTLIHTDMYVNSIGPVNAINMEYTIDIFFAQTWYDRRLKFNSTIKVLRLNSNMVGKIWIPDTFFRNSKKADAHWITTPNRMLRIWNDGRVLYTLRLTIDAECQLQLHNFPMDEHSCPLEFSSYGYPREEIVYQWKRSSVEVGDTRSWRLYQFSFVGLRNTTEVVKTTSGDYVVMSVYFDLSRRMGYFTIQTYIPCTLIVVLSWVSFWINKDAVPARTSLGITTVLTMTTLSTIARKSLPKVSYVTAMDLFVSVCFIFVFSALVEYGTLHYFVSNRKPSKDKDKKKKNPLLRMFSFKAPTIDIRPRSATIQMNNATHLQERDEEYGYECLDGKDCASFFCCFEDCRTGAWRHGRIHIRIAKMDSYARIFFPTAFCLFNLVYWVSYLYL
T1 sequence (P28472 whole entry): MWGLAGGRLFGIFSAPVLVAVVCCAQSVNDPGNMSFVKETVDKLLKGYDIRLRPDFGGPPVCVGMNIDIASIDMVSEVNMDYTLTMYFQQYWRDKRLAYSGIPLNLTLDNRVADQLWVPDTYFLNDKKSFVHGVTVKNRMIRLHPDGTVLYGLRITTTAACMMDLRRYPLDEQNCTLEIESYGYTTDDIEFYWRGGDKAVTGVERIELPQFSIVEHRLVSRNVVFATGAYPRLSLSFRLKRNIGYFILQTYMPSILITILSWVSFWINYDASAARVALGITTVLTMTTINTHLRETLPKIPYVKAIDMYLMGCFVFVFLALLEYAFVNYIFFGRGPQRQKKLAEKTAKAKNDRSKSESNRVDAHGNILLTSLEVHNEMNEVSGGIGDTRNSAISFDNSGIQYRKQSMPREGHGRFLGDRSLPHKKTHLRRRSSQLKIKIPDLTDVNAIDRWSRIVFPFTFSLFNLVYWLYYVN

[2] = target: T2, GABA-A receptor; alpha-1/beta-2/gamma-2 (Homo sapiens, UniProt P14867+P18507+P47870); experiment: Positive allosteric modulation of GABA-A alpha1beta2gamma2S receptor (unknown origin) expressed in Xenopus laevis oocytes assessed as increase in GABA-induced chloride current after 15 mins at -70 mV holding potential by two-microelectrode voltage clamp method
T2 sequence (P14867 whole entry): T1 sequence (P14867 whole entry)
T2 sequence (P47870 whole entry): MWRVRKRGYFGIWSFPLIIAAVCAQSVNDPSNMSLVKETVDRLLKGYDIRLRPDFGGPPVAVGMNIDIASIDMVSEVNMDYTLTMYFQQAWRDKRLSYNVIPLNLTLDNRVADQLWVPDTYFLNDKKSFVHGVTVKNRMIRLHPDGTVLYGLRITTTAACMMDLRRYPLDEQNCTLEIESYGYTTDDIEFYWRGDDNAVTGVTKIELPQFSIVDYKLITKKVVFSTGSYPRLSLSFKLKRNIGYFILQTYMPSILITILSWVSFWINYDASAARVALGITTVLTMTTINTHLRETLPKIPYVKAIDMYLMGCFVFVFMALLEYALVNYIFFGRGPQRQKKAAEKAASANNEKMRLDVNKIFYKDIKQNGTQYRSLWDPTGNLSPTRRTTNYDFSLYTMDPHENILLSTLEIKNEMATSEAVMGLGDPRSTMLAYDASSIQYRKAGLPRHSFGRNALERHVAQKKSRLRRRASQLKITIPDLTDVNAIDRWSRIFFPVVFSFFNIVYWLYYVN
T2 sequence (P18507 whole entry): T1 sequence (P18507 whole entry)

[3] = target: T3, GABA A receptor alpha-1/beta-1/gamma-2 (Homo sapiens, UniProt P14867+P18505+P18507); experiment: Positive allosteric modulation of GABA-A alpha1beta1gamma2S receptor (unknown origin) expressed in Xenopus laevis oocytes assessed as increase in GABA-induced chloride current after 15 mins at -70 mV holding potential by two-microelectrode voltage clamp method
T3 sequence (P14867 whole entry): T1 sequence (P14867 whole entry)
T3 sequence (P18507 whole entry): T1 sequence (P18507 whole entry)
T3 sequence (P18505 whole entry): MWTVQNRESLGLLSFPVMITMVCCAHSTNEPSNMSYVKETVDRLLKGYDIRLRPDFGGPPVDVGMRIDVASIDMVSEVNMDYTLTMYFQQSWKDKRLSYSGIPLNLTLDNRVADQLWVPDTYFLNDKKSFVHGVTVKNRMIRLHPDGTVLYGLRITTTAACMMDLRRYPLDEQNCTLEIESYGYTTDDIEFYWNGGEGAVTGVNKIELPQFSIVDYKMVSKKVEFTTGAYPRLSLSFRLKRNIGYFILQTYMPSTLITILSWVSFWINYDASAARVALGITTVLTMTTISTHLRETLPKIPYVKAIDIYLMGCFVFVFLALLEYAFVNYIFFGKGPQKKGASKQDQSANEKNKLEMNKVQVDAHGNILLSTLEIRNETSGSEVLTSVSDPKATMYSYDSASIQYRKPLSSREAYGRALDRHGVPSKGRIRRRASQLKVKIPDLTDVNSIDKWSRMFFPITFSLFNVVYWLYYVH

| SMILES | pEC50 [1] | pEC50 [2] | pEC50 [3] |
| --- | --- | --- | --- |
| Cl/C(=C\n1cncn1)c1ccc(Cl)cc1Cl [LORECLEZOLE] | 4.96 |  |  |
| CC(CC#N)c1ccc(Cl)cc1Cl (racemic) | 3.92 |  |  |
| C/C(=C(/C#N)C(N)=O)c1ccc(Cl)cc1Cl | 4.26 | 4.19 |  |
| CC(=C(C#N)C(N)=O)c1ccc(Cl)cc1Cl (mixture of isomers) | 4.17 |  |  |
| CC(=CC#N)c1ccc(C)cc1Cl (mixture of isomers) | 4.39 | 4.39 | 3.57 |
